In US8263773B2, “Thieno [2,3-b] pyridine compounds with mGluR activity” (Richter Gedeon Nyrt., priority 2008, dated 2012):

Columns and labels:
rat mGluR5 = target: T1, rat mGluR5 (Rattus norvegicus, UniProt P31424); assay: rat mGluR5 receptor binding ([3H]-M-MPEP, rat cerebro-cortical membranes); details: for Ki: rat cerebro-cortical membranes, [3H]-M-MPEP 2 nM; for binding affinity to rat mGlu5 receptors: statement in words
T1 construct: Rat cerebro-cortical membrane preparation was used; from tissue; host or cells: rat cerebral cortex membranes
T1 sequence (P31424 21-1203): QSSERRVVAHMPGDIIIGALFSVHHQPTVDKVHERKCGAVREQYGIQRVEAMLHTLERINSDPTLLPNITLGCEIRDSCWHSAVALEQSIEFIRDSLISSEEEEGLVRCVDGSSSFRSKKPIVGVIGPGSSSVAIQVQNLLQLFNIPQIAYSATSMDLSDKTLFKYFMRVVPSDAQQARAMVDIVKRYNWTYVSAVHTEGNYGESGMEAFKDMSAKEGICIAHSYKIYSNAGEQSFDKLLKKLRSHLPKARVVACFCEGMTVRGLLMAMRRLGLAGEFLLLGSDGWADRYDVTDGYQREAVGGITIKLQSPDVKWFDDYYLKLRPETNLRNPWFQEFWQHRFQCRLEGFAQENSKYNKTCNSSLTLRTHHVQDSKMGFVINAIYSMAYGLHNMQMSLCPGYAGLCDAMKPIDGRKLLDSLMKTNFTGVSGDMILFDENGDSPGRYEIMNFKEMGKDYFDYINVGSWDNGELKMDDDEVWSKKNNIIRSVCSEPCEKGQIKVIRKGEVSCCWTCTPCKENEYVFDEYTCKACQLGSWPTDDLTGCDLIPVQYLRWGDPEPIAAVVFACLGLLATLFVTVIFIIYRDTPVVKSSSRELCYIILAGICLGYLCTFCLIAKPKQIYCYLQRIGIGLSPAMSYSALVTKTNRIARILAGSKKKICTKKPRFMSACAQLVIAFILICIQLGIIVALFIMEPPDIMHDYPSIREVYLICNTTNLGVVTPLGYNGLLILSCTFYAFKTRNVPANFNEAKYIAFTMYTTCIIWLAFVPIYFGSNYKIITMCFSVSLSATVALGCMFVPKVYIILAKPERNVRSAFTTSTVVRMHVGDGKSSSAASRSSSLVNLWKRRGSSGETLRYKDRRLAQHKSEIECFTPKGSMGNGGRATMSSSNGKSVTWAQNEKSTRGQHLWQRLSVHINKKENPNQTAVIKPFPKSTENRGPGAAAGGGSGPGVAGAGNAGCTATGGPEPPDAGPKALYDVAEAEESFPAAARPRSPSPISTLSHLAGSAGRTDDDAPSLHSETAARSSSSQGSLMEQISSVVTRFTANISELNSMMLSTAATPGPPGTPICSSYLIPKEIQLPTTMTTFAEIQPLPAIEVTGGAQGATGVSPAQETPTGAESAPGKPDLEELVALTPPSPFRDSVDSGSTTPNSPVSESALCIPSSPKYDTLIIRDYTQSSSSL
Method: (§1) MGluR5 Receptor Binding Tests
(§2) MGluR5 receptor binding was determined according to Gasparini et al. (Bioorg. Med. Chem. Lett. 2000, 12:407-409) with modifications. Rat cerebro-cortical membrane preparation was used to determine the binding characteristics of reference compounds and novel compounds to the rat mGluR5. The A18 cell line expressing hmGluR5a (purchased from Euroscreen) was used to determine binding characteristics of the chemical compounds to the human mGluR5a receptor. [3H]-M-MPEP (2 nM) was used as a radioligand. The nonspecific binding was determined in the presence of 10 μM M-MPEP.

male Wistar rats = assay: Anxiolytic activity in the punished drinking test (Vogel); type: in vivo, rat; details: for Punished drinking, MED: oral, 60 min before test, MED = dose increasing accepted shocks above 35, male Wistar rats; for anxiolytic activity after oral administration: statement in words
Description: Measurement of Anxiolytic Activity in the Punished Drinking Test
The method described by Vogel et al. (Psychopharmacology (Berl.) 1971, 21:1-7) was used with modifications. On the day preceding the test day male Wistar rats (180-220 g) were placed into the test chambers which were equipped with a metal water spout mounted on the wall of the chamber and a metal grid floor for delivering electric shocks. During a 5-min adaptation period the animals had free access to the drinking spout. Following the adaptation session rats were deprived of drinking water for 24 hours prior to the test. On the day of the measurement, the animals were orally treated with the test compounds and 60 minutes later were placed into the test chambers where they had access to the drinking water. In the test session drinking was punished by delivering electric shocks (1 mA, 1 sec) through the drinking spout following every 10 licks during a 270 second punishment period. Number of licks and shocks delivered were recorded and stored in a computer. Anxiolytic activity is reflected by the increased number of accepted shocks. Minimum effective doses (MED, defined as the dose which increased the number of accepted shocks above 35) were determined and used to characterize the anxiolytic potency of the tested compounds.

human mGluR5a receptor = target: T2, human mGluR5a receptor (Homo sapiens, UniProt P41594); assay: human mGluR5a receptor binding ([3H]-M-MPEP, A18 cell line expressing hmGluR5a); details: for Ki: A18 cell line expressing hmGluR5a, [3H]-M-MPEP 2 nM; for binding affinity to human mGlu5 receptors: statement in words
T2 construct: host or cells: A18 cell line
T2 sequence (P41594 21-1180 isoform P41594-2 limits assumed): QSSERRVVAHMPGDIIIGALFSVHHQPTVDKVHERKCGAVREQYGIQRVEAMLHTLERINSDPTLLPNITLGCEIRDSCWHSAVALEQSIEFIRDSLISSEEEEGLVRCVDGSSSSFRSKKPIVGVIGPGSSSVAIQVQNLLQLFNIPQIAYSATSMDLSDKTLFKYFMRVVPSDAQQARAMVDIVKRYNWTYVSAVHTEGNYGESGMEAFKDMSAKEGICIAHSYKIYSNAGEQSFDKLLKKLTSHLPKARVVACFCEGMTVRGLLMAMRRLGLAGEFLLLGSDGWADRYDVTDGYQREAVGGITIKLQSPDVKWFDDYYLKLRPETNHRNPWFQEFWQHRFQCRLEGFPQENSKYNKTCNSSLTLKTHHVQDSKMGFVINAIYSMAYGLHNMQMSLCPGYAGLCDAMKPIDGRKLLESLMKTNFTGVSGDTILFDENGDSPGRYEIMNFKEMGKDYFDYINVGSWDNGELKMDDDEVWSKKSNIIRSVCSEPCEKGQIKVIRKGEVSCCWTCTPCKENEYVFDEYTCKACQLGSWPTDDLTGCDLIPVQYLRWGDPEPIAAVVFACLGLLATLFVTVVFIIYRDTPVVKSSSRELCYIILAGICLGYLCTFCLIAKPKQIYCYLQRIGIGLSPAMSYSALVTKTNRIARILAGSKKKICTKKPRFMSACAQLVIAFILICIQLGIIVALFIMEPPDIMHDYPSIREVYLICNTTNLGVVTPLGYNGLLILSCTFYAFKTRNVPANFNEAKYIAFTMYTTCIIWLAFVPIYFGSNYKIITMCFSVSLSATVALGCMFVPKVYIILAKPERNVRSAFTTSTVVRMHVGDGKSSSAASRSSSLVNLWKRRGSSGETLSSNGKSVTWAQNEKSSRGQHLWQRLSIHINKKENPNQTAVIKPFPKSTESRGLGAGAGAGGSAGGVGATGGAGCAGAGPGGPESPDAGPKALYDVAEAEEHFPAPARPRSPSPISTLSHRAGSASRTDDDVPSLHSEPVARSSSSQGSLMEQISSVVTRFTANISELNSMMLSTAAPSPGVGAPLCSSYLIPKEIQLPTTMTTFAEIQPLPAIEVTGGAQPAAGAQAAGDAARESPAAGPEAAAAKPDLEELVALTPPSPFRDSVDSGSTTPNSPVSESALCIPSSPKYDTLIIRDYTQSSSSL
Method: as §1, §2

Row | Ki (rat mGluR5) [nM] | binding affinity to rat mGlu5 receptors (rat mGluR5) | Ki (human mGluR5a receptor) [nM] | binding affinity to human mGlu5 receptors (human mGluR5a receptor) | SMILES | Punished drinking, MED (male Wistar rats) [mg/kg] | anxiolytic activity after oral administration (male Wistar rats)
1 | 1.9 | high affinity | 3.2 | high affinity | N#Cc1cc(F)cc(S(=O)(=O)c2sc3ncc(N)cc3c2-c2cccc(F)c2)c1 [Compound 1, 5-Amino-2-(3-cyano-5-fluoro-benzenesulfonyl)-3-(3-fluorophenyl)-thieno[2,3-b]-pyridine] | 3 | remarkable anxiolytic activity
2 | 7.2 | high affinity | 8.7 | high affinity | N#Cc1cc(F)cc(S(=O)(=O)c2sc3ncc(N)cc3c2-c2cccc(Cl)c2)c1 [Compound 2, 5-Amino-2-(3-cyano-5-fluoro-benzenesulfonyl)-3-(3-chlorophenyl)-thieno[2,3-b]-pyridine] | 5 | remarkable anxiolytic activity
